Test system: A375_aEGFR2
Assay: pERK immunofluorescence normalised to no-drug reference (=1); higher = more ERK phosphorylation (less pathway inhibition)
Conditions: drug treatment time 24 h, EGF time 8 h
Procedure: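 A375 CRISPRa-EGFR (A375_aEGFR2) or HT29 cells were treated with two-drug dose combinations (vemurafenib, LY3009120, cobimetinib) for 24 h, then stimulated with EGF (100 ng/mL) or mock medium for 8 h. pERK (T202/Y204) was measured by immunofluorescence as the cytosolic population average, normalised to an untreated no-drug reference of the block (=1). Averages of 2 technical replicates. A375 in 5% FBS, HT29 in 10% FBS.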

CCCS(=O)(=O)Nc1ccc(F)c(C(=O)c2c[nH]c3ncc(-c4ccc(Cl)cc4)cc23)c1F [Vemurafenib] + CNc1ncc2cc(-c3cc(NC(=O)NCCC(C)(C)C)c(F)cc3C)c(C)nc2n1 [LY3009120]
pERK immunofluorescence normalised
Conditions | EGF 0 ng/mL | EGF 100 ng/mL
drug A concentration 0 µM, drug B concentration 0.0001 µM | 1.02 | 1.04
drug A concentration 0 µM, drug B concentration 0.000316228 µM | 1.03 | 1.07
drug A concentration 0 µM, drug B concentration 0.001 µM | 1.06 | 1.02
drug A concentration 0 µM, drug B concentration 0.00316228 µM | 0.865 | 0.989
drug A concentration 0 µM, drug B concentration 0.01 µM | 0.696 | 0.807
drug A concentration 0 µM, drug B concentration 0.0316228 µM | 0.376 | 0.565
drug A concentration 0 µM, drug B concentration 0.1 µM | 0.193 | 0.368
drug A concentration 0 µM, drug B concentration 0.316228 µM | 0.157 | 0.264
drug A concentration 0 µM, drug B concentration 1 µM | 0.149 | 0.175
drug A concentration 0 µM, drug B concentration 3.16228 µM | 0.153 | 0.149
drug A concentration 0.000316228 µM, drug B concentration 0 µM | 1.03 | 0.99
drug A concentration 0.000316228 µM, drug B concentration 0.0001 µM | 1.03 | 0.996
drug A concentration 0.000316228 µM, drug B concentration 0.000316228 µM | 1.03 | 1.02
drug A concentration 0.000316228 µM, drug B concentration 0.001 µM | 0.876 | 0.959
drug A concentration 0.000316228 µM, drug B concentration 0.00316228 µM | 0.793 | 0.849
drug A concentration 0.000316228 µM, drug B concentration 0.01 µM | 0.488 | 0.648
drug A concentration 0.000316228 µM, drug B concentration 0.0316228 µM | 0.263 | 0.454
drug A concentration 0.000316228 µM, drug B concentration 0.1 µM | 0.168 | 0.312
drug A concentration 0.000316228 µM, drug B concentration 0.316228 µM | 0.151 | 0.206
drug A concentration 0.000316228 µM, drug B concentration 1 µM | 0.15 | 0.155
drug A concentration 0.000316228 µM, drug B concentration 3.16228 µM | 0.15 | 0.14
drug A concentration 0.001 µM, drug B concentration 0 µM | 1 | 1.02
drug A concentration 0.001 µM, drug B concentration 0.0001 µM | 1.01 | 0.999
drug A concentration 0.001 µM, drug B concentration 0.000316228 µM | 0.997 | 0.982
drug A concentration 0.001 µM, drug B concentration 0.001 µM | 0.96 | 0.953
drug A concentration 0.001 µM, drug B concentration 0.00316228 µM | 0.806 | 0.892
drug A concentration 0.001 µM, drug B concentration 0.01 µM | 0.501 | 0.635
drug A concentration 0.001 µM, drug B concentration 0.0316228 µM | 0.278 | 0.468
drug A concentration 0.001 µM, drug B concentration 0.1 µM | 0.168 | 0.331
drug A concentration 0.001 µM, drug B concentration 0.316228 µM | 0.148 | 0.215
drug A concentration 0.001 µM, drug B concentration 1 µM | 0.15 | 0.156
drug A concentration 0.001 µM, drug B concentration 3.16228 µM | 0.149 | 0.134
drug A concentration 0.00316228 µM, drug B concentration 0 µM | 0.995 | 0.977
drug A concentration 0.00316228 µM, drug B concentration 0.0001 µM | 1.05 | 0.996
drug A concentration 0.00316228 µM, drug B concentration 0.000316228 µM | 0.961 | 1.04
drug A concentration 0.00316228 µM, drug B concentration 0.001 µM | 0.922 | 0.953
drug A concentration 0.00316228 µM, drug B concentration 0.00316228 µM | 0.781 | 0.836
drug A concentration 0.00316228 µM, drug B concentration 0.01 µM | 0.534 | 0.641
drug A concentration 0.00316228 µM, drug B concentration 0.0316228 µM | 0.27 | 0.456
drug A concentration 0.00316228 µM, drug B concentration 0.1 µM | 0.167 | 0.305
drug A concentration 0.00316228 µM, drug B concentration 0.316228 µM | 0.145 | 0.212
drug A concentration 0.00316228 µM, drug B concentration 1 µM | 0.15 | 0.154
drug A concentration 0.00316228 µM, drug B concentration 3.16228 µM | 0.149 | 0.139
drug A concentration 0.01 µM, drug B concentration 0 µM | 0.897 | 0.969
drug A concentration 0.01 µM, drug B concentration 0.0001 µM | 0.912 | 0.967
drug A concentration 0.01 µM, drug B concentration 0.000316228 µM | 0.891 | 0.96
drug A concentration 0.01 µM, drug B concentration 0.001 µM | 0.889 | 0.91
drug A concentration 0.01 µM, drug B concentration 0.00316228 µM | 0.732 | 0.789
drug A concentration 0.01 µM, drug B concentration 0.01 µM | 0.471 | 0.625
drug A concentration 0.01 µM, drug B concentration 0.0316228 µM | 0.28 | 0.469
drug A concentration 0.01 µM, drug B concentration 0.1 µM | 0.165 | 0.311
drug A concentration 0.01 µM, drug B concentration 0.316228 µM | 0.15 | 0.205
drug A concentration 0.01 µM, drug B concentration 1 µM | 0.153 | 0.157
drug A concentration 0.01 µM, drug B concentration 3.16228 µM | 0.148 | 0.138
drug A concentration 0.0316228 µM, drug B concentration 0 µM | 0.695 | 0.896
drug A concentration 0.0316228 µM, drug B concentration 0.0001 µM | 0.759 | 0.9
drug A concentration 0.0316228 µM, drug B concentration 0.000316228 µM | 0.727 | 0.935
drug A concentration 0.0316228 µM, drug B concentration 0.001 µM | 0.745 | 0.852
drug A concentration 0.0316228 µM, drug B concentration 0.00316228 µM | 0.669 | 0.768
drug A concentration 0.0316228 µM, drug B concentration 0.01 µM | 0.457 | 0.635
drug A concentration 0.0316228 µM, drug B concentration 0.0316228 µM | 0.251 | 0.454
drug A concentration 0.0316228 µM, drug B concentration 0.1 µM | 0.166 | 0.319
drug A concentration 0.0316228 µM, drug B concentration 0.316228 µM | 0.146 | 0.216
drug A concentration 0.0316228 µM, drug B concentration 1 µM | 0.152 | 0.156
drug A concentration 0.0316228 µM, drug B concentration 3.16228 µM | 0.15 | 0.138
drug A concentration 0.1 µM, drug B concentration 0 µM | 0.453 | 0.761
drug A concentration 0.1 µM, drug B concentration 0.0001 µM | 0.436 | 0.789
drug A concentration 0.1 µM, drug B concentration 0.000316228 µM | 0.465 | 0.802
drug A concentration 0.1 µM, drug B concentration 0.001 µM | 0.482 | 0.771
drug A concentration 0.1 µM, drug B concentration 0.00316228 µM | 0.416 | 0.719
drug A concentration 0.1 µM, drug B concentration 0.01 µM | 0.321 | 0.61
drug A concentration 0.1 µM, drug B concentration 0.0316228 µM | 0.206 | 0.45
drug A concentration 0.1 µM, drug B concentration 0.1 µM | 0.161 | 0.329
drug A concentration 0.1 µM, drug B concentration 0.316228 µM | 0.152 | 0.229
drug A concentration 0.1 µM, drug B concentration 1 µM | 0.151 | 0.161
drug A concentration 0.1 µM, drug B concentration 3.16228 µM | 0.147 | 0.137
drug A concentration 0.316228 µM, drug B concentration 0 µM | 0.252 | 0.767
drug A concentration 0.316228 µM, drug B concentration 0.0001 µM | 0.262 | 0.764
drug A concentration 0.316228 µM, drug B concentration 0.000316228 µM | 0.264 | 0.746
drug A concentration 0.316228 µM, drug B concentration 0.001 µM | 0.292 | 0.721
drug A concentration 0.316228 µM, drug B concentration 0.00316228 µM | 0.295 | 0.653
drug A concentration 0.316228 µM, drug B concentration 0.01 µM | 0.266 | 0.579
drug A concentration 0.316228 µM, drug B concentration 0.0316228 µM | 0.203 | 0.431
drug A concentration 0.316228 µM, drug B concentration 0.1 µM | 0.158 | 0.293
drug A concentration 0.316228 µM, drug B concentration 0.316228 µM | 0.146 | 0.19
drug A concentration 0.316228 µM, drug B concentration 1 µM | 0.149 | 0.149
drug A concentration 0.316228 µM, drug B concentration 3.16228 µM | 0.146 | 0.137
drug A concentration 1 µM, drug B concentration 0 µM | 0.192 | 0.784
drug A concentration 1 µM, drug B concentration 0.0001 µM | 0.185 | 0.755
drug A concentration 1 µM, drug B concentration 0.000316228 µM | 0.191 | 0.728
drug A concentration 1 µM, drug B concentration 0.001 µM | 0.204 | 0.725
drug A concentration 1 µM, drug B concentration 0.00316228 µM | 0.211 | 0.678
drug A concentration 1 µM, drug B concentration 0.01 µM | 0.201 | 0.598
drug A concentration 1 µM, drug B concentration 0.0316228 µM | 0.184 | 0.467
drug A concentration 1 µM, drug B concentration 0.1 µM | 0.159 | 0.308
drug A concentration 1 µM, drug B concentration 0.316228 µM | 0.152 | 0.195
drug A concentration 1 µM, drug B concentration 1 µM | 0.149 | 0.149
drug A concentration 1 µM, drug B concentration 3.16228 µM | 0.152 | 0.137
drug A concentration 3.16228 µM, drug B concentration 0 µM | 0.176 | 0.761
drug A concentration 3.16228 µM, drug B concentration 0.0001 µM | 0.165 | 0.663
drug A concentration 3.16228 µM, drug B concentration 0.000316228 µM | 0.172 | 0.678
drug A concentration 3.16228 µM, drug B concentration 0.001 µM | 0.168 | 0.701
drug A concentration 3.16228 µM, drug B concentration 0.00316228 µM | 0.171 | 0.649
drug A concentration 3.16228 µM, drug B concentration 0.01 µM | 0.169 | 0.625
drug A concentration 3.16228 µM, drug B concentration 0.0316228 µM | 0.165 | 0.508
drug A concentration 3.16228 µM, drug B concentration 0.1 µM | 0.156 | 0.337
drug A concentration 3.16228 µM, drug B concentration 0.316228 µM | 0.145 | 0.197
drug A concentration 3.16228 µM, drug B concentration 1 µM | 0.147 | 0.15
drug A concentration 3.16228 µM, drug B concentration 3.16228 µM | 0.15 | 0.156
drug A concentration 10 µM, drug B concentration 0 µM | 0.164 | 0.668
drug A concentration 10 µM, drug B concentration 0.0001 µM | 0.172 | 0.644
drug A concentration 10 µM, drug B concentration 0.000316228 µM | 0.166 | 0.629
drug A concentration 10 µM, drug B concentration 0.001 µM | 0.167 | 0.651
drug A concentration 10 µM, drug B concentration 0.00316228 µM | 0.171 | 0.663
drug A concentration 10 µM, drug B concentration 0.01 µM | 0.177 | 0.628
drug A concentration 10 µM, drug B concentration 0.0316228 µM | 0.172 | 0.553
drug A concentration 10 µM, drug B concentration 0.1 µM | 0.165 | 0.335
drug A concentration 10 µM, drug B concentration 0.316228 µM | 0.166 | 0.228
drug A concentration 10 µM, drug B concentration 1 µM | 0.157 | 0.177
drug A concentration 10 µM, drug B concentration 3.16228 µM | 0.162 | 0.153
